Patent US5252581A, “Substituted aminothienopyridines, pharmaceutical composition and use” (Hoechst-Roussel Pharmaceuticals Inc., priority 1992, dated 1993)
Counter-ions that a name gives are not always drawn. Like-named read-outs stand apart in the source and are kept apart here.

Assays:
[1] = target: T1, NMDA associated strychnine-insensitive glycine modulatory site (Rattus norvegicus, UniProt P35439); experiment: Enhancement of [^3 H]TCP Binding; type: biochemical, rat (Sprague Dawley); details: for Emax: read-out: Enhancement of [^3 H]TCP Binding, % maximal glycine response
T1 construct: prepared from cortical tissue obtained from male Sprague Dawley rats; from tissue; host or cells: male Sprague Dawley rat cortex, crude synaptosomal homogenate

[2] = target: T2, glycine binding site associated with the N-methyl-D-aspartate (NMDA) receptor complex (Rattus norvegicus, UniProt P35439); experiment: Displacement of [^3 H]Glycine Binding; design: species or system rat (Wistar)
T2 construct: Cortices of male Wistar rats are dissected over ice; from tissue; host or cells: male Wistar rat cortex, Triton-treated membranes
Description: Aliquots of 20 μl to the assay tube will give a final concentration of 10^-3 M.
4. […] Aliquots of 50 μl are added to yield a final assay concentration of 10 nM.
6. […] A stock solution of Triton-X 100, 10% can be prepared and stored in the refrigerator. Dilute 1.0 ml of Triton-X 100 to 10.0 ml with distilled water. On the day of the assay, the tissue homogenate (1:15 dilution) is preincubated with an aliquot of the 10% solution to give a final concentration of 0.04% (v/v).
Three cortices are pooled for one preparation.
1. Prepare assay tubes in triplicate.
2. Following the addition of the tissue, the tubes are incubated for 20 minutes in an ice-bath at 0°-4° C.
3. […] IC50 values for the competing compound are calculated by log-probit analysis of the data.

5HT3 Receptor = target: T3, 5HT3 Receptor (Homo sapiens, UniProt P46098); experiment: 5HT3 Receptor Binding Assay
T3 sequence (P46098 24-478): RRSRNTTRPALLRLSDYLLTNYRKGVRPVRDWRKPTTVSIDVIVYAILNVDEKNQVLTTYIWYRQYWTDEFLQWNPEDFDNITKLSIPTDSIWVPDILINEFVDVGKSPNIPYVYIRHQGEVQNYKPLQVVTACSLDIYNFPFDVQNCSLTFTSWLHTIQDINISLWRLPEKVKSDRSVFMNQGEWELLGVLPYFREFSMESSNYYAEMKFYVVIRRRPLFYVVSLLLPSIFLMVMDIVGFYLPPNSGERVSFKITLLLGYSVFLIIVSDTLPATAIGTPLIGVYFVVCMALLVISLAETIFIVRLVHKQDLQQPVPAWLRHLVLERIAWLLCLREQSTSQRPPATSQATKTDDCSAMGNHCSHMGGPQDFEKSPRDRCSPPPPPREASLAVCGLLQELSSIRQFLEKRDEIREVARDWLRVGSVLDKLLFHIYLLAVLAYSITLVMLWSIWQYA

serotonin (5HT) uptake = target: T4, serotonin (5HT) uptake (Rattus norvegicus, UniProt P31652); experiment: ^3 H-Serotonin Uptake in Rat Whole Brain Synaptosomes; type: biochemical, rat (Wistar)
T4 construct: from tissue; host or cells: male Wistar rat whole brain minus cerebella, crude synaptosomes (S1)
Description: A. Animals: Male CR Wistar rats (100-125 g).
3. […] This is used to dilute the specific activity of radiolabeled 5HT.
The dilution factor is 0.8.
5. For most assays, a 1 mM solution of the test compound is made up in suitable solvent and serially diluted such that the final concentration in the assay ranges from 2×10^-8 to 2×10^-5 M. Seven concentrations are used for each assay.
Male Wistar rats are decapitated and the brain rapidly removed. […] Homogenization should be done with 4-5 up and down strokes at medium speeds to minimize synaptosome lysis. […] The supernatant (S1) is decanted and is used for uptake experiments.
Tubes are incubated at 37° C. under a 95% O2 /5% CO2 atmosphere for 5 minutes. For each assay, 3 tubes are incubated with 20 μl of vehicle at 0° C. in an ice bath. After incubation all tubes are immediately centrifuged at 4000 g for 10 minutes. The supernatant fluid is aspirated and the pellets dissolved by adding 1 ml of solubilizer (Triton X-100+50% EtOH, 1:4 v/v). The tubes are vigorously vortexed, decanted into scintillation vials, and counted in 10 ml of Liquiscint scintillation counting cocktail. Active uptake is the difference between cpm at 37° C. and 0° C. The percent inhibition at each drug concentration is the mean of three determinations. IC50 values are derived from log-probit analysis.

[3] = target: T5, ^3 H-Norepinephrine reuptake (Rattus norvegicus, UniProt Q63380); experiment: Inhibition of Biogenic Amine Reuptake, ^3 H-Norepinephrine (WB); type: biochemical
T5 construct: from tissue; host or cells: whole brain (WB), rat inferred

^3 H-Dopamine reuptake = target: T6, ^3 H-Dopamine reuptake (Rattus norvegicus, UniProt P23977); experiment: Inhibition of Biogenic Amine Reuptake, ^3 H-Dopamine (Str); type: biochemical; details: str. = striatum
T6 construct: str. = striatum; from tissue; host or cells: striatum, rat inferred
T6 sequence (P23977 whole entry): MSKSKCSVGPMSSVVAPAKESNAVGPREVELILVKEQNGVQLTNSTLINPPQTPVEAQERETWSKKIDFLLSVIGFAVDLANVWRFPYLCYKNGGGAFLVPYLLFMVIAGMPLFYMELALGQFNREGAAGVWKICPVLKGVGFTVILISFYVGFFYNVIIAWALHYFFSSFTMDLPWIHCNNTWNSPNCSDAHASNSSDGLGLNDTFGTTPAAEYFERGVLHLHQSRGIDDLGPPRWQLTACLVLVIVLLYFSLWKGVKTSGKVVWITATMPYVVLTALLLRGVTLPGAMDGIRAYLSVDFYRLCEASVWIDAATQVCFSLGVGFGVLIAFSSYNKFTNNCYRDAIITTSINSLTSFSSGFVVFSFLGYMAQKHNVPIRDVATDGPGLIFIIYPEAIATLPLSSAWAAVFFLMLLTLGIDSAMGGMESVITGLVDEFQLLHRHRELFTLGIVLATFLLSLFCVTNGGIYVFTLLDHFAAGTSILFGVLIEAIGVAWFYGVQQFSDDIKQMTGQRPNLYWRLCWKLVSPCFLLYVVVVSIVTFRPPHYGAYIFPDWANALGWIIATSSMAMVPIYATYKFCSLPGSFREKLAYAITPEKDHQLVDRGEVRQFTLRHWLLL

T4 sequence (P31652 whole entry): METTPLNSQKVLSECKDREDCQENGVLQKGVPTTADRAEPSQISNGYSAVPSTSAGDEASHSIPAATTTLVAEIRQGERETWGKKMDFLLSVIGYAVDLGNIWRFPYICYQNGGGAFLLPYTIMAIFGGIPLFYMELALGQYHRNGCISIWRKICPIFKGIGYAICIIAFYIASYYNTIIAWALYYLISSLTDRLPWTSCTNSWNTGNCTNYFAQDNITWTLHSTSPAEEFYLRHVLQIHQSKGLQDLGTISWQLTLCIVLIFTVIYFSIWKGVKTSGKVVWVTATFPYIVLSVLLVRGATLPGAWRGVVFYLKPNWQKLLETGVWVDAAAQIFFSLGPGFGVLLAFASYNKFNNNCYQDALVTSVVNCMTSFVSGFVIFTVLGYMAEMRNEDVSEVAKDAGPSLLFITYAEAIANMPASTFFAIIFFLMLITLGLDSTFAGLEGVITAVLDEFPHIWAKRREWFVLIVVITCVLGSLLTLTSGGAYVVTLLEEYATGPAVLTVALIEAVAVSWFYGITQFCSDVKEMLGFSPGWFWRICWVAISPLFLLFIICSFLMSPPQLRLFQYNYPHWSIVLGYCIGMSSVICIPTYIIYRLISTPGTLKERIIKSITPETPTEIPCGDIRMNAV
T5 sequence (Q63380 1-617): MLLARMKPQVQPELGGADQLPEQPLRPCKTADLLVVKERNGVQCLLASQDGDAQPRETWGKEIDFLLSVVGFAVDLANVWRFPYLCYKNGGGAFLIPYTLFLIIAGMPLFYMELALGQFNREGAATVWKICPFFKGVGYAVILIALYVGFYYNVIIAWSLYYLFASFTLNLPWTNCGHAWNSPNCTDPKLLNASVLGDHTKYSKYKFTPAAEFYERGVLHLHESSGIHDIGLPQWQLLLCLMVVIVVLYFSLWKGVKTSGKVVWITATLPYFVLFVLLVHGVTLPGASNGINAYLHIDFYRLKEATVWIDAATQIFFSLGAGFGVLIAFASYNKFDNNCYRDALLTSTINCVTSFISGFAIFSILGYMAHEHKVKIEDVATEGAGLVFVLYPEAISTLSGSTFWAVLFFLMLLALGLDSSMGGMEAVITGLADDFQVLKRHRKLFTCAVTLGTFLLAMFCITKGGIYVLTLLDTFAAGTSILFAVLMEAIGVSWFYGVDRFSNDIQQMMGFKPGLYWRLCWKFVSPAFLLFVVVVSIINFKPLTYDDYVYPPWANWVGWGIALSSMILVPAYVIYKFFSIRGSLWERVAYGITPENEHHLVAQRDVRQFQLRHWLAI

NCC(=O)Nc1csc2ncccc12 [2-Amino-N-(thieno[2,3-b]pyridin-3-yl)acetamide]
EC50 ([1]; rat cortical homogenate, 2.5 nM [^3 H]TCP, 10^-7 M L-glutamic acid): 14.4 µM
Emax [1]: 39%
IC50 [2]: 21.8 µM

CCCN(c1ccncc1)c1csc2ncccc12 [3-(Propyl-4-pyridinylamino)-thieno[2,3-b]-pyridine hydrochloride]
IC50 (5HT3 Receptor): 4.6 µM
IC50 (serotonin (5HT) uptake): 71 nM
IC50 [3]: 710 nM

CCCN(c1ccncc1)c1csc2cnccc12 [3-(Propyl-4-pyridinylamino)thieno[2,3-c]pyridine]
IC50 (serotonin (5HT) uptake; […]): 540 nM

CN(C)CCCN1c2ccccc2CCc2ccc(Cl)cc21 [Clomipramine, reference compound]
IC50 (5HT3 Receptor): > 10 µM
IC50 (^3 H-Dopamine reuptake): 31.5 µM

N[C@@H]1CONC1=O [D-cycloserine, reference compound]
Emax [1]: 80%

NCC(=O)O [Glycine, glycine, reference compound]
Emax [1]: 100%
